# Assay results published in paper PMC7336998, “Discovery of secondary sulphonamides as IDO1 inhibitors with potent antitumour effects in vivo” (Journal of Enzyme Inhibition and Medicinal Chemistry, 2020).
# Entries after “also recorded” stand apart in the source; their conditions may differ.
# How the values were obtained:
# [1] = target: T1, IDO1 protein in HeLa cells (Homo sapiens, UniProt P14902); experiment: Cellular thermal shift assay (CETSA); type: binding; conditions: IFN-γ 100 ng/mL 24 h, compound 2 h, 43-70 °C, Western blot
# T1 construct: a human cervical cancer cell line HeLa that endogenously expresses IDO1 upon IFN-γ treatment; endogenous in cells; host or cells: HeLa cells treated with human IFN-γ
# Procedure: HeLa cells were seeded in 6-well culture plates at a density of 2 × 10^5 per well. On the next day, human IFN-γ (100 ng/mL) were added and incubated for 24 h, and then the cells were treated with 5d for 2 h. At the end of incubation, cells collected and subjected to CETSA assay. Briefly, incubated cells were equally divided into 10 parts, each part was heated for 3 min under different temperature (43, 46, 49, 52, 55, 58, 61, 64, 67, and 70 °C), and then the heated cells were kept at −80 °C for 12 h, then at room temperature for 5 min, and the process repeated one more time. After that, cell lysates were extracted by centrifugation at 20,000 × g, 20 min. Levels of IDO1 protein were assessed by Western blot analysis.
# The cellular thermal shift assay (CETSA) is usually used to identify compounds and their potential targets. CESTA can detect the target engagement of drugs in a cellular context based on the biophysical principle of ligand-induced thermal stabilisation of target proteins. To this end, we further employed the CETSA assay to detect whether compound 5d could directly bind to the target protein IDO1 in HeLa cells.
# Figure 6. Compound 5d could bind to IDO1 protein in HeLa cells. HeLa cells were treated with human IFN-γ (100 ng/mL) for 24 h, and then treated with 5d for 2 h. […] The levels of IDO1 protein were assessed by Western blot analysis.
# CT26 colon carcinoma = CT26 colon carcinoma xenograft in immunocompetent BALB/c mice (tumour growth, H&E, IHC, TUNEL, spleen FACS); type: in vivo
# Procedure: BALB/c mice (6–8 weeks old, 18–22 g) were supplied by Model Animal Research Centre of Nanjing University (Nanjing, China). Mice were maintained under standard specific-pathogen-free (SPF) conditions (21 ± 2 °C and 12-h light: dark cycle). Animal welfare and experimental procedures were carried out strictly in accordance with the Guide for the Care and Use of Laboratory Animals (The Ministry of Science and Technology of China, 2006) and the related ethical regulations of our university. All efforts were made to minimise animals’ suffering and to reduce the number of animals used. Mouse colon cancer cells (CT26) and melanoma cells (B16F1) were cultured and collected by centrifugation (1000 rpm, 5 min) and washed twice with ice-cold PBS. Then cells were diluted to 1 × 10^7/ml and 1 × 10^6 CT26/B16F1 cells (in 0.1 ml PBS) were injected subcutaneously into the right flanks of mice. All mice formed tumours three days after injection. Then mice were randomly distributed into five groups (n = 10/8) according to tumour volumes. 5d ([…], 12.5 mg/kg) were administered (i.g) to each group respectively every day. 5-FU (25 mg/kg) and Cis-platinum (1 mg/kg) were administered (i.p) every three days. Tumour length and tumour width were measured with a Vernier calliper every three days. Tumour volumes were measured and calculated using the equation volume = a × b^2/2, where “a” is the maximal […] and “b” is maximal orthogonal width. After the administration were completed, mice were weighed, euthanized, and tumours were removed and the weight were taken.
# For immunohistochemistry staining, the sections were deparaffinized, rehydrated, and washed in 1% PBS-Tween 20, and then treated with 2% hydrogen peroxide, blocked with 3% goat serum (Life Technology, 16210–064) and incubated for 2 h at room temperature with specific primary antibodies. Then the slides were incubated with streptavidin-HRP (Shanghai Gene Company, GK500705) for 40 min, then stained with DAB (Shanghai Gene Company, GK500705) substrate and counter-stained with haematoxylin. Images were acquired by microscopy (Olympus IX51).
# Given that it was the most prominent inhibitor in vitro, we chose compound 5d for further pharmacodynamic evaluation in vivo. Bowel cancer is the third leading cause of cancer in the world, thus we first evaluated the efficacy of compound 5d on the growth of murine CT26 colon carcinoma xenograft model in immunocompetent BALB/c mice. Fluorouracil (5-FU) is one of the most commonly used drugs to different cancers including bowel cancer, and was used as the positive control. The CT26 tumour-bearing mice were treated with 5d (3.125, 6.25, 12.5 mg/kg, i.g, every day) or 5-FU (25 mg/kg, i.p, […]). Tumour volumes were measured every two days for 14 days.
# Figure 7. Compound 5d suppressed colon cancer growth in immunocompetent mice. 1 × 10^6 CT26 cells were transplanted subcutaneously into the armpit of the BALB/c mice. Three days after transplantation, mice were randomly allocated to vehicle control or treatment groups (n = 10). Drugs were administered on days 1–14. Tumour volume (A) and mice body weight (B) were recorded. After sacrifice, solid tumours were separated and weighed (C, D). Data represent mean ± SEM, n = 10, *p < 0.05, **p < 0.01 vs vehicle.
# In order to further observe morphological changes in tumour tissues after administration of compound 5d, the tumour tissue sections obtained from the BALB/c mice bearing CT26 colorectal tumours were stained with haematoxylin-eosin (H&E) to highlight different tissue structures, such as the nucleus and cytoplasm.
# Then, to understand the mechanism of tumour cell death, we detected the level of proliferating cell nuclear antigen (PCNA) protein and tumour cell apoptosis by immunohistochemistry (IHC) and terminal deoxynucleotidyl transferase dUTP nick end labelling (TUNEL) experiments, respectively. […]
# [2] = BALB/c mice, 12.5 mg/kg i.g, every day, 14 days
# [3] = CT26 tumour tissue, BALB/c mice, 3.125-12.5 mg/kg i.g
# T1 sequence (P14902 whole entry): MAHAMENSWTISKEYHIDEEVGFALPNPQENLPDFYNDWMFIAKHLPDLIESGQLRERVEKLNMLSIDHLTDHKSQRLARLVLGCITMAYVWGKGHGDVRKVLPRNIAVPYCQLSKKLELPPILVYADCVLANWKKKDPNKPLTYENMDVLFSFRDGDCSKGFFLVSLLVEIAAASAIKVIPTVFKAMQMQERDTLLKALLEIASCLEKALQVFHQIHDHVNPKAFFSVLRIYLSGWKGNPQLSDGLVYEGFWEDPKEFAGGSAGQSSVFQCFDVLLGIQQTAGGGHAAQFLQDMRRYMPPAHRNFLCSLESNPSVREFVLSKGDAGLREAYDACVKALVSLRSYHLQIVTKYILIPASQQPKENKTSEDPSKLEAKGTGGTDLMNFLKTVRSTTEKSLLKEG
compound,measurement,setting,value
"C=CC(=O)Nc1ccc(S(=O)(=O)NCc2cccc(Cl)c2)cc1 [5d, N-(4-(N-(3-Chlorobenzyl)sulfamoyl)phenyl)acrylamide]",thermal stability of IDO1 protein,[1],improve the thermal stability of IDO1 protein; also recorded: still maintained the protein stability at 55 °C
same,body weight of the mice,"CT26 colon carcinoma; 14-day treatment, vs vehicle group",no significant change in body weight
same,reduction of average tumour weight,CT26 colon carcinoma; [2],37.5%
same,reduction of tumour volume,CT26 colon carcinoma; [2],35.9%
same,tumour growth,"CT26 colon carcinoma; BALB/c mice, 3.125, 6.25, 12.5 mg/kg, i.g, every day, 14 days, vs vehicle",significantly suppressed the growth of tumour in a dose-dependent manner
same,number of tumour cells (H&E staining),CT26 colon carcinoma; [3],decreased the number of tumour cells
same,tumour cell apoptosis (TUNEL),CT26 colon carcinoma; [3],significantly induced the tumour cell apoptosis in a dose-dependent manner
same,expression of IFN-γ (IHC),"CT26 colon carcinoma; CT26 tumour tissue, BALB/c mice, 3.125-12.5 mg/kg i.g, vs vehicle",increased the expression of IFN-γ in a dose-dependent manner
same,granzyme B levels (IHC),"CT26 colon carcinoma; CT26 tumour tissue, BALB/c mice, all doses",elevated granzyme B levels
same,FoxP3+ Treg cells in spleen (FACS),"CT26 colon carcinoma; CT26 tumour-bearing mice, 3.125 mg/kg",4.79%
same,FoxP3+ Treg cells in spleen (FACS),"CT26 colon carcinoma; CT26 tumour-bearing mice, 6.25 mg/kg",4.13%
same,FoxP3+ Treg cells in spleen (FACS),"CT26 colon carcinoma; CT26 tumour-bearing mice, 12.5 mg/kg",2.62%
same,number of FoxP3+ Treg cells in spleen (in words),"CT26 colon carcinoma; CT26 tumour-bearing mice, 3.125-12.5 mg/kg",decreased the number of FoxP3^+ Treg cells in a dose-dependent manner
same,reduction of FoxP3+ Treg cells compared with the vehicle group,"CT26 colon carcinoma; spleen, high dose group",2.4 fold
